Results: patent US4387218A, “Anthracycline antibiotics FA-1180 B and B1, or salts thereof” (priority 1979, dated 1983)
Converted amounts (≈) assume the structure as drawn. Structures can show the parent of a compound that is named as a salt. Where two headings read alike, the source gives them in different places.

How the values were obtained:
[1] = tested on: Bacillus subtilis PCI 219; assay: minimum inhibitory concentration (MIC) by the agar dilution method, Bacillus subtilis PCI 219; assay type: cell-based; conditions: Brain heart infusion agar, 18 hrs after inoculation
Experimental: (§1) The minimum inhibitory concentration (MIC) of the FA-118O A, A1, B or B1 was determined by the agar dilution method, and the results are indicated in Table 5 below.
(§2) (1) Medium: Brain heart infusion agar
(§3) (2) Determined: 18 hrs after inoculation

Bacillus subtilis 17 A = assay: minimum inhibitory concentration (MIC) by the agar dilution method, Bacillus subtilis 17 A; assay type: cell-based; conditions: Brain heart infusion agar, 18 hrs after inoculation
Experimental: as §1, §2, §3

Bacillus subtilis 45 T = assay: minimum inhibitory concentration (MIC) by the agar dilution method, Bacillus subtilis 45 T; assay type: cell-based; conditions: Brain heart infusion agar, 18 hrs after inoculation
Experimental: as §1, §2, §3

[2] = tested on: Staphylococcus aureus 209 P; assay: minimum inhibitory concentration (MIC) by the agar dilution method, Staphylococcus aureus 209 P; assay type: cell-based; conditions: Brain heart infusion agar, 18 hrs after inoculation
Experimental: as §1, §2, §3

Staphylococcus aureus = assay: minimum inhibitory concentration (MIC) by the agar dilution method, Staphylococcus aureus; assay type: cell-based; conditions: Brain heart infusion agar, 18 hrs after inoculation
Experimental: as §1, §2, §3

Escherichia coli NIHJ = assay: minimum inhibitory concentration (MIC) by the agar dilution method, Escherichia coli NIHJ; assay type: cell-based; conditions: Brain heart infusion agar, 18 hrs after inoculation
Experimental: as §1, §2, §3

Escherichia coli W3110 = assay: minimum inhibitory concentration (MIC) by the agar dilution method, Escherichia coli W3110; assay type: cell-based; conditions: Brain heart infusion agar, 18 hrs after inoculation
Experimental: as §1, §2, §3

Escherichia coli P3478 = assay: minimum inhibitory concentration (MIC) by the agar dilution method, Escherichia coli P3478; assay type: cell-based; conditions: Brain heart infusion agar, 18 hrs after inoculation
Experimental: as §1, §2, §3

Pseudomonas aeruginosa H = assay: minimum inhibitory concentration (MIC) by the agar dilution method, Pseudomonas aeruginosa H; assay type: cell-based; conditions: Brain heart infusion agar, 18 hrs after inoculation
Experimental: as §1, §2, §3

[3] = tested on: Salmonella typhimurium IFO 12529; assay: minimum inhibitory concentration (MIC) by the agar dilution method, Salmonella typhimurium IFO 12529; assay type: cell-based; conditions: Brain heart infusion agar, 18 hrs after inoculation
Experimental: as §1, §2, §3

[4] = tested on: Klebsiella pneumoniae IFO 3512; assay: minimum inhibitory concentration (MIC) by the agar dilution method, Klebsiella pneumoniae IFO 3512; assay type: cell-based; conditions: 18 hrs after inoculation
Experimental: as §1, §2, §3

[5] = tested on: Serratia marcescens IFO 12648; assay: minimum inhibitory concentration (MIC) by the agar dilution method, Serratia marcescens IFO 12648; assay type: cell-based; conditions: 18 hrs after inoculation
Experimental: as §1, §2, §3

Candida albicans = assay: minimum inhibitory concentration (MIC) by the agar dilution method, Candida albicans; assay type: cell-based; conditions: Brain heart infusion agar, 18 hrs after inoculation
Experimental: as §1, §2, §3

Yoshida rat sarcoma = assay: growth inhibitory effect on Yoshida rat sarcoma cells; assay type: cell-based; conditions: for IC50: Rattus norvegicus, YOSHIDA, read-out: Growth Inhibitory Effect IC50
Experimental: (§4) The tumor cell suspension was prepared from cells taken from ascites of rats to which 1×10^6 cells of Yoshida rat sarcoma had been inoculated before 3 to 5 days. The ascites was diluted with a medium which was constituted from 80 to 90% (v/v) Fischer's solution containing 20 to 10% (v/v) desensitized horse serum. One half milliliter of the cell suspension containing 5~20×10^4 cells thus prepared was placed in a small test tube. A substance to be tested was dissolved and diluted with the same medium and 0.5 ml of the diluted solution was added to the cell suspension. To the control tube was added 0.5 ml of the medium. 2 to 5 tubes were used for each experimental units. They were incubated statically at 37° C. for 2 to 3 days. After the incubation, growth was measured by observing the quantity of precipitated cells on the bottom of the test tube with the naked eyes. Growth inhibitory effect of a substance was expressed by the concentration pointing 50 percent growth of the control growth.
IC50 : The concentration pointing 50% growth of the control growth.

Gram-positive bacteria = assay: ability to inhibit the growth of Gram-positive bacteria (summary statement); assay type: cell-based; conditions: summary in words
Experimental: as §1

tumor = assay: antitumor activity (summary statement); conditions: summary in words
Experimental: (§5) The test was conducted in accordance with the method described in Cancer Chemotherapy Reports, Part 3, Vol. 3, No. 2, p. 9, September 1972. Mice inoculated intraperitoneally with 1×10^6 cells of P-388 were administered with the test compounds daily on days 1 to 5. The activity (T/C) of the test compounds is represented by the ratio of the median survival time of the treated group to that of the control group.
as §4

P-388 Mice Leukemia = assay: therapeutic effect against P-388 Mice Leukemia; assay type: in vivo; conditions: daily on days 1 to 5, 1×10^6 P-388 cells intraperitoneally
Experimental: as §5

Bacillus cereus IAM 1729 = assay: minimum inhibitory concentration (MIC) by the agar dilution method, Bacillus cereus IAM 1729; assay type: cell-based; conditions: IAM1729, Brain heart infusion agar, 18 hrs after inoculation
Experimental: as §1, §2, §3

Solubility = assay type: physicochemical
[6] = concentration pointing 50% growth of the control growth, 37° C., 2 to 3 days, Fischer's solution with horse serum
[7] = Bacillus subtilis, PCI219, 18 h, read-out: MIC
[8] = Salmonella enterica, read-out: MIC
[9] = IFO3512, Brain heart infusion agar, read-out: MIC
[10] = IFO12648, Brain heart infusion agar, read-out: MIC

| Structure (SMILES) | MIC [1] | MIC (Bacillus subtilis 17 A) | MIC (Bacillus subtilis 45 T) | MIC [2] | MIC (Staphylococcus aureus) | MIC (Escherichia coli NIHJ) | MIC (Escherichia coli W3110) | MIC (Escherichia coli P3478) | MIC (Pseudomonas aeruginosa H) | MIC [3] | MIC ([4]; Brain heart infusion agar) | MIC ([5]; Brain heart infusion agar) | MIC (Candida albicans) | Growth Inhibitory Effect IC50 (Yoshida rat sarcoma; [6]) | ability to inhibit the growth of Gram-positive bacteria (Gram-positive bacteria) | antitumor activity (tumor) | MIC [1, 7] | Activity (T/C), ratio of median survival time of treated group to control group (P-388 Mice Leukemia; 0.25 mg/kg/day) | Activity (T/C), ratio of median survival time of treated group to control group (P-388 Mice Leukemia; 0.5 mg/kg/day) | Activity (T/C), ratio of median survival time of treated group to control group (P-388 Mice Leukemia; 1.0 mg/kg/day) | also measured |
| --- | --- | --- | --- | --- | --- | --- | --- | --- | --- | --- | --- | --- | --- | --- | --- | --- | --- | --- | --- | --- | --- |
| CC(=O)C1(O)Cc2c(O)c3c(c(O)c2C(OC2CC(N)C(OC(CC(C)O)OC(C)CO)C(C)O2)C1)C(=O)c1c(O)cccc1C3=O (centres unmarked) [FA-1180 A1] | 1.56 ppm | 1.56 ppm | < 0.2 ppm | 12.5 ppm | 12.5 ppm | > 100 ppm | > 100 ppm | > 100 ppm | > 100 ppm | > 100 ppm | > 100 ppm | > 100 ppm | > 100 ppm | 10^-3 μg/ml | strong ability to inhibit the growth of Gram-positive bacteria | antitumor activity |  |  |  |  |  |
| O=c1[nH]cc(F)c(=O)[nH]1 [5-FU, reference compound] |  |  |  |  |  |  |  |  |  |  |  |  |  |  |  |  |  |  |  |  | Activity (T/C), ratio of median survival time of treated group to control group (P-388 Mice Leukemia; 20 mg/kg/day): 198% |
| CC(=O)C1(O)Cc2c(O)c3c(c(O)c2C(OC2CC(N)C(OC(CC(C)O)OC(C)CO)C(C)O2)C1)C(=O)c1c(O)cccc1C3=O (centres unmarked) [FA-1180 A] |  |  |  |  |  |  |  |  |  |  |  |  |  | 10^-2 μg/ml | strong ability to inhibit the growth of Gram-positive bacteria | antitumor activity | 1.56 µg/mL (≈ 2.36 µM) | 148% | 167% | 205% | MIC (Bacillus subtilis 17 A; read-out: MIC): 1.56 µg/mL (≈ 2.36 µM); MIC (Bacillus subtilis 45 T; read-out: MIC): < 0.2 µg/mL; MIC (Bacillus cereus IAM 1729): 3.12 µg/mL (≈ 4.74 µM); MIC ([2]; read-out: MIC): 12.5 µg/mL (≈ 18.9 µM); MIC (Staphylococcus aureus; read-out: MIC): 12.5 µg/mL (≈ 18.9 µM); MIC (Escherichia coli NIHJ; read-out: MIC): > 100 µg/mL; MIC (Escherichia coli W3110; read-out: MIC): > 100 µg/mL; MIC (Escherichia coli P3478; read-out: MIC): > 100 µg/mL; MIC (Pseudomonas aeruginosa H; read-out: MIC): > 100 µg/mL; MIC [3, 8]: > 100 µg/mL; MIC [4, 9]: > 100 µg/mL; MIC [5, 10]: > 100 µg/mL; MIC (Candida albicans; read-out: MIC): > 100 µg/mL; Solubility in chloroform (Solubility): soluble; Solubility in methanol (Solubility): freely soluble; Solubility in n-hexane (Solubility): slightly soluble |
| COc1cccc2c1C(=O)c1c(O)c3c(c(O)c1C2=O)C[C@@](O)(C(=O)CO)C[C@@H]3O[C@H]1C[C@H](N)[C@H](O)[C@H](C)O1 [Adriamycin hydrochloride, reference compound] |  |  |  |  |  |  |  |  |  |  |  |  |  |  |  |  |  |  |  |  | IC50 (Yoshida rat sarcoma): 0.01 µg/mL |
| CC(O)CC(OC(C)CO)OC1C(N)CC(OC2CC(O)(C(C)O)Cc3c(O)c4c(c(O)c32)C(=O)c2c(O)cccc2C4=O)OC1C (centres unmarked) [FA-1180 B1] | 3.125 ppm | 12.5 ppm | 0.4 ppm | 50 ppm | 50 ppm | > 100 ppm | > 100 ppm | > 100 ppm | > 100 ppm | > 100 ppm | > 100 ppm | > 100 ppm | > 100 ppm | 10^-2 μg/ml | strong ability to inhibit the growth of Gram-positive bacteria | antitumor activity |  | 151% | 168% | 179% |  |
| CC(O)CC(OC(C)CO)OC1C(N)CC(OC2CC(O)(C(C)O)Cc3c(O)c4c(c(O)c32)C(=O)c2c(O)cccc2C4=O)OC1C (centres unmarked) [FA-1180 B] |  |  |  |  |  |  |  |  |  |  |  |  |  |  | strong ability to inhibit the growth of Gram-positive bacteria | antitumor activity | 6.25 µg/mL (≈ 9.45 µM) | 143% | 162% | 190% | MIC (Bacillus subtilis 17 A; read-out: MIC): 12.5 µg/mL (≈ 18.9 µM); MIC (Bacillus subtilis 45 T; read-out: MIC): 0.4 µg/mL (≈ 0.605 µM); MIC (Bacillus cereus IAM 1729): 25 µg/mL (≈ 37.8 µM); MIC ([2]; read-out: MIC): 50 µg/mL (≈ 75.6 µM); MIC (Staphylococcus aureus; read-out: MIC): 50 µg/mL (≈ 75.6 µM); MIC (Escherichia coli NIHJ; read-out: MIC): > 100 µg/mL; MIC (Escherichia coli W3110; read-out: MIC): > 100 µg/mL; MIC (Escherichia coli P3478; read-out: MIC): > 100 µg/mL; MIC (Pseudomonas aeruginosa H; read-out: MIC): > 100 µg/mL; MIC [3, 8]: > 100 µg/mL; MIC [4, 9]: > 100 µg/mL; MIC [5, 10]: > 100 µg/mL; MIC (Candida albicans; read-out: MIC): > 100 µg/mL; IC50 (Yoshida rat sarcoma; [6]): 0.01 µg/mL (≈ 0.0151 µM); Solubility in chloroform (Solubility): soluble; Solubility in methanol (Solubility): freely soluble; Solubility in n-hexane (Solubility): slightly soluble |
